Test results as given in patent publication US20020058636A1, “RIBOZYMES TARGETING THE RETROVIRAL PACKAGING SEQUENCE EXPRESSION CONSTRUCTS AND RECOMBINANT RETROVIRUSES CONTAINING SUCH CONSTRUCTS” (priority 1994, published 2002).

Experiments:
Type in all cases: cell-based
[1] = test system: HIV-1 (SF2); test: Syncitia formation of infected SupT1 cells over days post infection
Protocol: The anti-HIV packaging site construct, pSV-Rz-HIV-Psi, was electroporated into Sup T-1 cells, a human T lymphoma cell line. Exponentially growing cells were harvested and the number of viable cells counted by dye exclusion. The cells were washed with PBS and resuspended at a density of 1×10^7 viable cells/ml in RPMI media without FCS but containing 10 m,M dextrose and 0.1 mM dithiothreitol. 0.4 ml of the cell suspension and 10 μg of pSV-Rz-HIV-Psi plasmid DNA were used per electroporation in 0.4 cm cuvettes (Bio-Rad) . The cell and DNA mixture was subjected to a single pulse of 960 μF, 200V from a Gene Pulser (Bio-Rad) . After shocking, the cuvette was incubated for 10 minutes at room temperature, and the cells were then transferred to 10 ml of RPMI media with 10% FCS and placed into an incubator (5%CO2, 37° C.). At 48 hours post electroporation, the cells were selected in medium supplemented with 800 μg/ml G418. 9-12 days later, positive colonies were isolated and grown as clonal isolates to be used in a HIV protection assay.
(§1) Two assays, p24 antigen and syncytium formation, were performed to assess efficacy of the anti-HIV Psi ribozyme construct in cell culture. HIV-1 p24 antigen assay is an enzyme immunoassay, which uses a murine monoclonal antibody against HIV core antigen coated onto microwell strips. The HIV-1 syncytium assay is based on the observation that HIV-1 interacts with target T lymphocytes by causing fusion resulting in the formation of syncytia, large cells containing many nuclei. The clonal ribozyme-construct expressing cells, plus controls, were infected with HIV-1 (SF2) at m.o.i. of 0.1 to 1. After 2 hours, the cells were washed, and 10 ml of fresh media was added. Every 3-4 days, the number of both syncitia and viable cells were counted. […] In addition, the presence of the ribozyme caused a delay in syncitia formation (Table 4).

[2] = test system: HIV-1 IIIB; test: BM12 antibody and ribozyme expression, p24 production in SupT1 cells; settings: BM12 Concentration 0.00 μg/ml
Protocol: The anti-HIV-1 antibody BM12 has been tested for its potential combined effect with ribozymes on HIV-1 replication. Rz2 (a single ribozyme targeted to the HIV-1 tat gene) and SV2neo vector expressing SupT1 cells were infected with HIV-1 IIIB virus for 2 hr and then washed. The cells were resuspended in BM12 antibody containing medium (0, 0.5, 5, 50 μg BM12 antibody/ml) and incubated at 37° C., 5% CO2. Samples of medium were taken at days 3, 5, 9, 12 and 15 for p24 assays. Cytopathic effect (CPE) determined by syncytia formation was monitored at days 3, 6, 9, 12. […] The following Table 6 summarizes the p24 data at day 15.

[3] = test system: HIV-1 (SF2); test: HIV-1 p24 antigen assay in ribozyme-expressing Sup T-1 cells
Protocol: Vector, is the control construct. Rz-2 and Rz-M are two ribozyme constructs targeted to the tat gene of HIV. Rz-M is a multi-ribozyme containing several ribozymes targeted to different sites within tat. This includes the site targeted by Rz-2.
as §1
In another experimental protocol, the cells were pelleted, and an aliquot of the supernatant taken for p24 assay. In this experiment there was an inhibition of p24 levels to day 22 post challenge.

| Sequence | Syncitia formation ([1]; 6 Days Post Infection) | Syncitia formation ([1]; 7 Days Post Infection) | Syncitia formation ([1]; 8 Days Post Infection) | Syncitia formation ([1]; 9 Days Post Infection) | Syncitia formation ([1]; 10 Days Post Infection) | Syncitia formation ([1]; 11 Days Post Infection) | p24 Production at Day 15 [2] | inhibition of HIV-1 replication [3] |
| --- | --- | --- | --- | --- | --- | --- | --- | --- |
| GTCAAAAATTGGCGCTGATGAGTCCGTGAGGACGAAACTCACCAGTCGCCG (chemistry not given here) [Rz-Psi, single anti-HIV Psi packaging site ribozyme cloned into neo r gene of pSV2neo] | − (−, no syncytia) | − (−, no syncytia) | − (−, no syncytia) | − (−, no syncytia) | − (−, no syncytia) | − (−, no syncytia) |  |  |
| TTAGGATCCTGATGAGTCCGTGAGGACGAAACTGGCTC (chemistry not given here) [Rz-2, single ribozyme targeted to the HIV-1 tat gene] |  |  |  |  |  |  | 1.90 ng/mL | effective in inhibiting HIV-1 replication |
